US11219603B2, “Stable dosage form of etidronate-cytarabine conjugate, and use thereof” (MAXWELL BIOTECH GROUP LTD., priority 2015, dated 2022)

Legend:
Type in all cases: physicochemical
[1] = Effect of MgCl2 on hydrolysis of MBC-11 in solution (formation of Ara-CMP at 25° C.); settings: for Content of Ara-CMP (%): 25° C.
Procedure: Studies were performed, where magnesium chloride was investigated as a stabilizer against hydrolytic decomposition. MgCl2 was added to solutions of MBC-11 conjugate in water, tartrate buffer (50 mmol/L, pH 5) and succinate buffer (50 mmol/L, pH 5). The following molar ratios of MgCl2 to MBC-11 were used: (1:2), (1:1), (2:1) and higher (˜12:1). […]

[2] = Hydrolysis rate constant with MgCl2 or CaCl2 as stabilizer; settings: for hydrolysis rate constant (K): in water
Text: The use of calcium chloride as a stabilizer against hydrolytic decomposition in both buffer solutions and water was also investigated; the hydrolysis rate constant was compared with the constant for MgCl2. […] If molar ratios were less than 2:1, the hydrolysis rate was lower for solutions containing MgCl2.

[3] = Compatibility with media for intravenous administration (Ara-CMP increase); settings: 25 mg/mL MBC-11, MgCl2:MBC-11 2:1, dextran 5%, diluted to 1 mg/mL in D5W; within one day
[4] = Physical and hydrolytic stability of reconstituted lyophilizates in intravenous media; settings: reconstituted lyophilizate, low dose in D5W, 25° C., 6 hours
Procedure: The lyophilized dosage form was evaluated for compatibility with three different media for intravenous administration within 24 hours: sterile water for injection (SWFI), D5W and 0.9% sodium chloride solution. […] The lyophilized dosage form was first dissolved in 5 mL SWFI to the MBC-11 trisodium salt concentration of 20 mg/mL, and then it was placed in glass vials and diluted with each medium for intravenous administration until the infusion doses under study were obtained. The solutions thus obtained were kept at 2-8° C. and 25° C. for 24 hours, and the evaluation of the samples in appearance, content and purity at the points t=0, 2, 4, 6 and 24 hours was performed.
At each control point, solutions for intravenous administration with a high dosage were evaluated in appearance, after which they were diluted to a nominal analytical concentration of 1 mg/mL with a solvent used in the analytical method for evaluating the substance purity. The samples thus obtained were used to determine the purity and content of the active pharmaceutical ingredient.

CC(O)(P(=O)(O)O)P(=O)(O)OP(=O)(O)OC[C@H]1O[C@@H](n2ccc(N)nc2=O)[C@@H](O)[C@@H]1O (some centres unmarked) [MBC-11]
Content of Ara-CMP (%) ([1]; Succinate buffer, MgCl2 0.87 mmol/L, MgCl2:MBC-11 1:2, t = 0 h): 2.6%
Content of Ara-CMP (%) ([1]; Succinate buffer, MgCl2 0.87 mmol/L, MgCl2:MBC-11 1:2, t = 4 h): 3.5%
Content of Ara-CMP (%) ([1]; Succinate buffer, MgCl2 0.87 mmol/L, MgCl2:MBC-11 1:2, t = 8 h): 4.4%
Content of Ara-CMP (%) ([1]; Succinate buffer, MgCl2 0.87 mmol/L, MgCl2:MBC-11 1:2, t = 24 h): 7.9%
Content of Ara-CMP (%) ([1]; Succinate buffer, MgCl2 1.73 mmol/L, MgCl2:MBC-11 1:1, t = 0 h): 2.5%
Content of Ara-CMP (%) ([1]; Succinate buffer, MgCl2 1.73 mmol/L, MgCl2:MBC-11 1:1, t = 4 h): 3.1%
Content of Ara-CMP (%) ([1]; Succinate buffer, MgCl2 1.73 mmol/L, MgCl2:MBC-11 1:1, t = 8 h): 3.7%
Content of Ara-CMP (%) ([1]; Succinate buffer, MgCl2 1.73 mmol/L, MgCl2:MBC-11 1:1, t = 24 h): 5.6%
Content of Ara-CMP (%) ([1]; Succinate buffer, MgCl2 3.5 mmol/L, MgCl2:MBC-11 2:1, t = 0 h): 2.6%
Content of Ara-CMP (%) ([1]; Succinate buffer, MgCl2 3.5 mmol/L, MgCl2:MBC-11 2:1, t = 4 h): 3.1%
Content of Ara-CMP (%) ([1]; Succinate buffer, MgCl2 3.5 mmol/L, MgCl2:MBC-11 2:1, t = 8 h): 3.7%
Content of Ara-CMP (%) ([1]; Succinate buffer, MgCl2 3.5 mmol/L, MgCl2:MBC-11 2:1, t = 24 h): 5.8%
Content of Ara-CMP (%) ([1]; Succinate buffer, MgCl2 20 mmol/L, MgCl2:MBC-11 ~12:1, t = 0 h): 2.5%
Content of Ara-CMP (%) ([1]; Succinate buffer, MgCl2 20 mmol/L, MgCl2:MBC-11 ~12:1, t = 4 h): 2.7%
Content of Ara-CMP (%) ([1]; Succinate buffer, MgCl2 20 mmol/L, MgCl2:MBC-11 ~12:1, t = 8 h): 2.9%
Content of Ara-CMP (%) ([1]; Succinate buffer, MgCl2 20 mmol/L, MgCl2:MBC-11 ~12:1, t = 24 h): 3.6%
Content of Ara-CMP (%) ([1]; Succinate buffer, no MgCl2, t = 0 h): 3.5%
Content of Ara-CMP (%) ([1]; Succinate buffer, no MgCl2, t = 4 h): 5.0%
Content of Ara-CMP (%) ([1]; Succinate buffer, no MgCl2, t = 8 h): 6.4%
Content of Ara-CMP (%) ([1]; Succinate buffer, no MgCl2, t = 24 h): 11.5%
Content of Ara-CMP (%) ([1]; Tartrate buffer, MgCl2 0.87 mmol/L, MgCl2:MBC-11 1:2, t = 0 h): 2.5%
Content of Ara-CMP (%) ([1]; Tartrate buffer, MgCl2 0.87 mmol/L, MgCl2:MBC-11 1:2, t = 4 h): 3.5%
Content of Ara-CMP (%) ([1]; Tartrate buffer, MgCl2 0.87 mmol/L, MgCl2:MBC-11 1:2, t = 8 h): 4.5%
Content of Ara-CMP (%) ([1]; Tartrate buffer, MgCl2 0.87 mmol/L, MgCl2:MBC-11 1:2, t = 24 h): 8.4%
Content of Ara-CMP (%) ([1]; Tartrate buffer, MgCl2 1.73 mmol/L, MgCl2:MBC-11 1:1, t = 0 h): 2.6%
Content of Ara-CMP (%) ([1]; Tartrate buffer, MgCl2 1.73 mmol/L, MgCl2:MBC-11 1:1, t = 4 h): 3.3%
Content of Ara-CMP (%) ([1]; Tartrate buffer, MgCl2 1.73 mmol/L, MgCl2:MBC-11 1:1, t = 8 h): 4.1%
Content of Ara-CMP (%) ([1]; Tartrate buffer, MgCl2 1.73 mmol/L, MgCl2:MBC-11 1:1, t = 24 h): 7.3%
Content of Ara-CMP (%) ([1]; Tartrate buffer, MgCl2 3.5 mmol/L, MgCl2:MBC-11 2:1, t = 0 h): 2.5%
Content of Ara-CMP (%) ([1]; Tartrate buffer, MgCl2 3.5 mmol/L, MgCl2:MBC-11 2:1, t = 4 h): 3.0%
Content of Ara-CMP (%) ([1]; Tartrate buffer, MgCl2 3.5 mmol/L, MgCl2:MBC-11 2:1, t = 8 h): 3.5%
Content of Ara-CMP (%) ([1]; Tartrate buffer, MgCl2 3.5 mmol/L, MgCl2:MBC-11 2:1, t = 24 h): 5.5%
Content of Ara-CMP (%) ([1]; Tartrate buffer, MgCl2 20 mmol/L, MgCl2:MBC-11 ~12:1, t = 0 h): 2.6%
Content of Ara-CMP (%) ([1]; Tartrate buffer, MgCl2 20 mmol/L, MgCl2:MBC-11 ~12:1, t = 4 h): 2.7%
Content of Ara-CMP (%) ([1]; Tartrate buffer, MgCl2 20 mmol/L, MgCl2:MBC-11 ~12:1, t = 8 h): 3.0%
Content of Ara-CMP (%) ([1]; Tartrate buffer, MgCl2 20 mmol/L, MgCl2:MBC-11 ~12:1, t = 24 h): 3.8%
Content of Ara-CMP (%) ([1]; Tartrate buffer, no MgCl2, t = 0 h): 3.8%
Content of Ara-CMP (%) ([1]; Tartrate buffer, no MgCl2, t = 4 h): 5.3%
Content of Ara-CMP (%) ([1]; Tartrate buffer, no MgCl2, t = 8 h): 6.6%
Content of Ara-CMP (%) ([1]; Tartrate buffer, no MgCl2, t = 24 h): 11.7%
Content of Ara-CMP (%) ([1]; Water, MgCl2 0.87 mmol/L, MgCl2:MBC-11 1:2, t = 0 h): 2.6%
Content of Ara-CMP (%) ([1]; Water, MgCl2 0.87 mmol/L, MgCl2:MBC-11 1:2, t = 4 h): 3.3%
Content of Ara-CMP (%) ([1]; Water, MgCl2 0.87 mmol/L, MgCl2:MBC-11 1:2, t = 8 h): 4.0%
Content of Ara-CMP (%) ([1]; Water, MgCl2 0.87 mmol/L, MgCl2:MBC-11 1:2, t = 24 h): 6.8%
Content of Ara-CMP (%) ([1]; Water, MgCl2 1.73 mmol/L, MgCl2:MBC-11 1:1, t = 0 h): 2.5%
Content of Ara-CMP (%) ([1]; Water, MgCl2 1.73 mmol/L, MgCl2:MBC-11 1:1, t = 4 h): 2.8%
Content of Ara-CMP (%) ([1]; Water, MgCl2 1.73 mmol/L, MgCl2:MBC-11 1:1, t = 8 h): 3.2%
Content of Ara-CMP (%) ([1]; Water, MgCl2 1.73 mmol/L, MgCl2:MBC-11 1:1, t = 24 h): 4.6%
Content of Ara-CMP (%) ([1]; Water, MgCl2 3.5 mmol/L, MgCl2:MBC-11 2:1, t = 0 h): 2.7%
Content of Ara-CMP (%) ([1]; Water, MgCl2 3.5 mmol/L, MgCl2:MBC-11 2:1, t = 4 h): 2.7%
Content of Ara-CMP (%) ([1]; Water, MgCl2 3.5 mmol/L, MgCl2:MBC-11 2:1, t = 8 h): 2.9%
Content of Ara-CMP (%) ([1]; Water, MgCl2 3.5 mmol/L, MgCl2:MBC-11 2:1, t = 24 h): 3.7%
Content of Ara-CMP (%) ([1]; Water, MgCl2 20 mmol/L, MgCl2:MBC-11 ~12:1, t = 0 h): 2.6%
Content of Ara-CMP (%) ([1]; Water, MgCl2 20 mmol/L, MgCl2:MBC-11 ~12:1, t = 4 h): 2.7%
Content of Ara-CMP (%) ([1]; Water, MgCl2 20 mmol/L, MgCl2:MBC-11 ~12:1, t = 8 h): 2.9%
Content of Ara-CMP (%) ([1]; Water, MgCl2 20 mmol/L, MgCl2:MBC-11 ~12:1, t = 24 h): 3.5%
increase in Ara-CMP content ([1]; previous observations (before addition of MgCl2), 8 hours at 25° C.): ~2%
slowdown in the hydrolysis reaction ([2]; divalent metal salts added to aqueous solution in molar ratio 2:1): 90%
hydrolysis rate constant (K) ([2]; molar ratio CaCl2 to MBC-11 2:1): 0.0005
hydrolysis rate constant (K) ([2]; molar ratio MgCl2 to MBC-11 2:1): 0.0005
increase in Ara-CMP content [3]: 1%
increase in the Ara-CMP content [4]: 0.5%
